Measurements as given in ChEMBL document CHEMBL1201862, “PubChem BioAssay data set” (2004).
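Cultured in 96-well plates, cells were exposed to test compound for 48 hours across five concentrations. The concentration for 50% growth inhibition is given as GI50.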 The source made the active and inactive calls. Rule as the data show it: active = GI50 up to about 1.1 µM and inactive = higher.

Key:
Test in all cases: NCI anticancer screen, dose series, 48 h
MOLT-4 = tested on: MOLT-4
IGROV-1 = tested on: IGROV-1
K562 = tested on: K562
NCI-H226 = tested on: NCI-H226
BT-549 = tested on: BT-549
SK-MEL-2 = tested on: SK-MEL-2
ACHN = tested on: ACHN
SF-295 = tested on: SF-295
OVCAR-8 = tested on: OVCAR-8
HCT-116 = tested on: HCT-116
Malme-3M = tested on: Malme-3M
U-251 = tested on: U-251
UACC-257 = tested on: UACC-257
LXFL 529 = tested on: LXFL 529
OVCAR-5 = tested on: OVCAR-5
HT-29 = tested on: HT-29
CAKI-1 = tested on: CAKI-1
TK-10 = tested on: TK-10
NCI-H522 = tested on: NCI-H522
Hs-578T = tested on: Hs-578T

Measured: GI50

N#C/N=C(/NCc1ccccc1)N(Cc1ccccc1)Cc1ccccc1
inactive: MOLT-4 14.1 µM | IGROV-1 17.4 µM | K562 26.3 µM | NCI-H226 22.4 µM | BT-549 61.4 µM | SK-MEL-2 15.2 µM | ACHN > 10 µM | SF-295 15.3 µM | OVCAR-8 20.2 µM | HCT-116 17.8 µM | Malme-3M > 10 µM | U-251 24.7 µM | UACC-257 > 10 µM | LXFL 529 > 10 µM | OVCAR-5 29.9 µM | HT-29 > 10 µM | CAKI-1 28.5 µM | TK-10 24.8 µM | NCI-H522 15.1 µM

COc1cc2c(c(O)c1C)C(=O)C(Cl)=CC2=O
inactive: MOLT-4 1.88 µM | IGROV-1 20.4 µM | K562 2.26 µM | NCI-H226 15.1 µM | BT-549 8.3 µM | SK-MEL-2 15.6 µM | ACHN 6.4 µM | SF-295 18.7 µM | OVCAR-8 18.8 µM | HCT-116 8.28 µM | Malme-3M 4.21 µM | U-251 21.4 µM | Hs-578T 30.5 µM | UACC-257 9.95 µM | LXFL 529 7.43 µM | OVCAR-5 28.5 µM | HT-29 10.8 µM | CAKI-1 5.45 µM | TK-10 7.41 µM | NCI-H522 2.36 µM

C[S+]([O-])c1cc(=O)c2ccccc2s1 (centres undefined)
inactive: MOLT-4 2.05 µM | IGROV-1 17.5 µM | K562 1.82 µM | NCI-H226 16.9 µM | BT-549 14.5 µM | SK-MEL-2 10.8 µM | ACHN 1.91 µM | SF-295 17 µM | OVCAR-8 3.6 µM | HCT-116 2.55 µM | Malme-3M 2.3 µM | U-251 12.8 µM | Hs-578T 25.4 µM | UACC-257 3.4 µM | LXFL 529 1.54 µM | OVCAR-5 9.42 µM | HT-29 4.35 µM | CAKI-1 3.09 µM | TK-10 6.68 µM | NCI-H522 1.13 µM
